According to patent US10442804B2, “Compounds for the treatment of hepatitis B virus infection” (Gilead Sciences, Inc., priority 2017, dated 2019):
pEC50: −log10 of the molar value. Where two headings read alike, the source gives them in different places.

Assays:
MT-4 cytotoxicity assay = type: cell-based, human; conditions: human
Experimental: Biological Example 2: MT-4 Cytotoxicity Assay
The MT-4 cell line (HTLV-1 transformed, human T lymphoblastoid cells) was obtained from the NIH AIDS Reagent program (Bethesda, Md.). MT-4 cells were maintained in RPMI-1640 media (Thermo Fisher Scientific, Waltham, Mass.) supplemented with 10% fetal bovine serum, 100 Units/mL penicillin, and 100 μg/mL streptomycin. For the MT-4 cytotoxicity assay, 0.4 μL of serially diluted solutions of certain compounds disclosed herein were added to 40 μL of cell maintenance media in 384-well black, solid bottom plate using a Biomek FX workstation (Beckman Coulter, Brea, Calif.). Two thousand cells in 35 μL were added to each well using a Biotek uFlow Workstation (Biotek, Winooski, Vt.). Each assay plate contained 10 μM puromycin (final concentration) and 0.5% DMSO in RPMI-1640 media as positive and negative controls, respectively. Assay plates were incubated for five days at 37° C. in an incubator set at 5% CO2 and 90% humidity. After five days, 22 μL of Cell Titer Glo reagent (Promega, Madison, Wis.) was added to the assay plates with a Biotek uFlow Workstation. Plates were subsequently placed on an Envision Plate Reader (Perkin Elmer, Waltham, Mass.) for five minutes before the luminescence signal was read. CC50 values were defined as the compound concentration that caused a 50% decrease in luminescence signal, and were calculated by non-linear regression using Pipeline Pilot software by applying a four parameter fit equation (Accelrys, San Diego, Calif.) and are reported in the following Table 1.

[1] = system: HBV-infected NTCP-HepG2 cells, secreted HBsAg; assay: microbe, parasite or virus in culture; type: cell-based, hepatitis B virus (genotype D, AD38-derived); conditions: Hepatitis B virus, 120 h, read-out: NTCP HBsAg EC50
Experimental: NTCP-HepG2 Antiviral Assay for Secreted HBsAg
HepG2 cells stably expressing sodium-taurocholate cotransporting polypeptide (NTCP-HepG2) were grown in Dulbecco's Modified Eagle Medium (DMEM) without sodium pyruvate (Thermo Fisher Scientific, Waltham, Mass.) supplemented with 10% fetal bovine serum, 2 mM L-glutamine, 1% penicillin/streptomycin, and 0.25 mg/mL G-418. NTCP-HepG2 cells were infected with 4000 genome equivalent per cell of genotype D (AD38-derived) HBV in DMEM without sodium pyruvate (Thermo Fisher Scientific, Waltham, Mass.) supplemented with 2% fetal bovine serum, 2 mM L-glutamine, 1% penicillin/streptomycin, 2.5% DMSO, and 4% PEG 8000 (Promega, Madison, Wis.). After 24-hour incubation, cells were washed three times with OptiMEM (Thermo Fisher Scientific, Waltham, Mass.) and fed with fresh DMEM without sodium pyruvate (Thermo Fisher Scientific, Waltham, Mass.) supplemented with 2% fetal bovine serum, 2 mM L-glutamine, 1% penicillin/streptomycin, and 2.5% DMSO. At 4 days after infection, infected NTCP-HepG2 cells were seeded on 384-well plates pre-coated with collagen at a density of 20000 cells per well containing serially diluted compounds of the present disclosure or DMSO (0.5%) in a final volume of 80 μl of DMEM without sodium pyruvate (Thermo Fisher Scientific, Waltham, Mass.) supplemented with 2% fetal bovine serum, 2 mM L-glutamine, 1% penicillin/streptomycin, and 1% DMSO. After an incubation time of 5 days, cell culture supernatant was collected and measured for HBsAg.
Secreted HBsAg in the supernatant were measured using a multiplex chemiluminescent MSD assay (Meso Scale Discovery, Rockville, Md.) using capture and detection antibody pairs specific for HBsAg. The EC50 values were calculated from the fit of the dose-response curves to a four-parameter equation. All EC50 values represent geometric mean values of a minimum of four determinations.

[2] = five days, Cell Titer Glo luminescence, read-out: MT-4 CC50
[3] = secreted HBsAg in supernatant after 5 days, geometric mean of minimum four determinations

SMILES: COCCCOc1cc2c(cc1Cl)-c1cc(=O)c(C(=O)O)cn1[C@H]1[C@H]2CCC1(C)C (single isomer, unassigned) [Example 35]
- CC50 at 5 days (MT-4 cytotoxicity assay; [2]): > 10000 nM
- pEC50 [1, 3]: 7.31

SMILES: CC(C)(C)OC(=O)[C@H]1CCN(c2cc3c(cc2OC(F)(F)F)-c2cc(=O)c(C(=O)O)cn2N2[C@@H]3CCC2(C)C)C1 [Compound 115, (R)-12-((S)-3-(tert-butoxycarbonyl)pyrrolidin-1-yl)-3,3-dimethyl-8-oxo-11-(trifluoromethoxy)-2,3,8,13b-tetrahydro-1H-pyrido[2,1-a]pyrrolo[1,2-c]phthalazine-7-carboxylic acid]
- CC50 at 5 days (MT-4 cytotoxicity assay; [2]): 8300 nM
- pEC50 [1, 3]: 8.54

SMILES: COCCCOc1cc2c(cc1Cl)-c1cc(=O)c(C(=O)O)cn1N1CC(C)(C)C[C@H]21 (single isomer, unassigned) [Example 29]
- CC50 at 5 days (MT-4 cytotoxicity assay; [2]): > 10000 nM
- pEC50 [1, 3]: 7.85

SMILES: CC(C)(O)C#Cc1cc2c(cc1C1CC1)-c1cc(=O)c(C(=O)O)cn1N1[C@@H]2CCC1(C)C [Example 71, (R)-11-cyclopropyl-12-(3-hydroxy-3-methylbut-1-yn-1-yl)-3,3-dimethyl-8-oxo-2,3,8,13b-tetrahydro-1H-pyrido[2,1-a]pyrrolo[1,2-c]phthalazine-7-carboxylic acid]
- CC50 at 5 days (MT-4 cytotoxicity assay; [2]): > 10000 nM
- pEC50 [1, 3]: 8.60

SMILES: COCCCOc1cc2c(cc1Cl)-c1cc(=O)c(C(=O)O)cn1N1[C@@H]2CCC1(COC)COC [Example 80, (R)-11-chloro-3,3-bis(methoxymethyl)-12-(3-methoxypropoxy)-8-oxo-2,3,8,13b-tetrahydro-1H-pyrido[2,1-a]pyrrolo[1,2-c]phthalazine-7-carboxylic acid]
- CC50 at 5 days (MT-4 cytotoxicity assay; [2]): > 10000 nM
- pEC50 [1, 3]: 7.35

SMILES: COCCCOc1cc2c(cc1COC)-c1cc(=O)c(C(=O)O)cn1N1[C@@H]2CCC12CC2 [Example 87, (R)-11′-(methoxymethyl)-12′-(3-methoxypropoxy)-8′-oxo-1′,2′,8′,13b′-tetrahydrospiro[cyclopropane-1,3′-pyrido[2,1-a]pyrrolo[1,2-c]phthalazine]-7′-carboxylic acid]
- CC50 at 5 days (MT-4 cytotoxicity assay; MT-4 CC50): > 10000 nM
- pEC50 [1, 3]: 8.38

SMILES: CC1(C)CC[C@@H]2c3cc(OCCCOC4COC4)c(Cl)cc3-c3cc(=O)c(C(=O)O)cn3N21 [Example 98, (R)-11-chloro-3,3-dimethyl-12-(3-(oxetan-3-yloxy)propoxy)-8-oxo-2,3,8,13b-tetrahydro-1H-pyrido[2,1-a]pyrrolo[1,2-c]phthalazine-7-carboxylic acid]
- CC50 at 5 days (MT-4 cytotoxicity assay; [2]): > 10000 nM
- pEC50 [1, 3]: 8.66

SMILES: COCCCOc1c(OC)cc2c(c1F)[C@H]1CCC(C)(C)N1n1cc(C(=O)O)c(=O)cc1-2 [Example 67, (R)-13-fluoro-11-methoxy-12-(3-methoxypropoxy)-3,3-dimethyl-8-oxo-2,3,8,13b-tetrahydro-1H-pyrido[2,1-a]pyrrolo[1,2-c]phthalazine-7-carboxylic acid]
- CC50 at 5 days (MT-4 cytotoxicity assay; [2]): > 10000 nM
- pEC50 [1, 3]: 8.28

SMILES: COCCCOc1cc2c(cc1C1COC1)-c1cc(=O)c(C(=O)O)cn1N1[C@@H]2CCC1(C)C [Example 77, (R)-12-(3-methoxypropoxy)-3,3-dimethyl-11-(oxetan-3-yl)-8-oxo-2,3,8,13b-tetrahydro-1H-pyrido[2,1-a]pyrrolo[1,2-c]phthalazine-7-carboxylic acid]
- CC50 at 5 days (MT-4 cytotoxicity assay; [2]): > 10000 nM
- pEC50 [1, 3]: 7.90

SMILES: COCCCOc1cc2c(cc1Cl)-c1cc(=O)c(C(=O)O)cn1[C@@H]1[C@H]2CCC1(C)C (single isomer, unassigned) [Example 34]
- CC50 at 5 days (MT-4 cytotoxicity assay; [2]): > 10000 nM
- pEC50 [1, 3]: 6.66

SMILES: COCc1cc2c(cc1OCC1(COC)CC1)[C@H]1CCC(C)(C)N1n1cc(C(=O)O)c(=O)cc1-2 [Compound 109, (R)-11-(methoxymethyl)-12-((1-(methoxymethyl)cyclopropyl)methoxy)-3,3-dimethyl-8-oxo-2,3,8,13b-tetrahydro-1H-pyrido[2,1-a]pyrrolo[1,2-c]phthalazine-7-carboxylic acid]
- CC50 at 5 days (MT-4 cytotoxicity assay; [2]): > 10000 nM
- pEC50 [1, 3]: 7.88

SMILES: COc1cc2c(cc1OCCCOCC(F)(F)F)[C@H]1CCC(C)(C)N1n1cc(C(=O)O)c(=O)cc1-2 [Example 60, (R)-11-methoxy-3,3-dimethyl-8-oxo-12-(3-(2,2,2-trifluoroethoxy)propoxy)-2,3,8,13b-tetrahydro-1H-pyrido[2,1-a]pyrrolo[1,2-c]phthalazine-7-carboxylic acid]
- CC50 at 5 days (MT-4 cytotoxicity assay; [2]): > 10000 nM
- pEC50 [1, 3]: 8.92

SMILES: COCCCOc1cc2c(cc1OC(C)(C)C)-c1cc(=O)c(C(=O)O)cn1N1[C@H]2CCC1(C)C [Example 26, (S)-11-(tert-butoxy)-12-(3-methoxypropoxy)-3,3-dimethyl-8-oxo-2,3,8,13b-tetrahydro-1H-pyrido[2,1-a]pyrrolo[1,2-c]phthalazine-7-carboxylic acid]
- CC50 at 5 days (MT-4 cytotoxicity assay; [2]): > 10000 nM
- pEC50 [1, 3]: < 6.00

SMILES: COCC12CC(COc3cc4c(cc3OC(F)F)-c3cc(=O)c(C(=O)O)cn3N3[C@@H]4CCC3(C)C)(C1)C2 [Compound 105, (R)-11-(difluoromethoxy)-12-((3-(methoxymethyl)bicyclo[1.1.1]pentan-1-yl)methoxy)-3,3-dimethyl-8-oxo-2,3,8,13b-tetrahydro-1H-pyrido[2,1-a]pyrrolo[1,2-c]phthalazine-7-carboxylic acid]
- CC50 at 5 days (MT-4 cytotoxicity assay; [2]): > 10000 nM
- pEC50 [1, 3]: 8.85

SMILES: COCCCOc1cc2c(cc1OC(C)C)-c1cc(=O)c(C(=O)O)cn1N1[C@@H]2CCC1(C)C [Example 22, (R)-11-isopropoxy-12-(3-methoxypropoxy)-3,3-dimethyl-8-oxo-2,3,8,13b-tetrahydro-1H-pyrido[2,1-a]pyrrolo[1,2-c]phthalazine-7-carboxylic acid]
- CC50 at 5 days (MT-4 cytotoxicity assay; [2]): > 10000 nM
- pEC50 [1, 3]: 7.92

SMILES: COCCCOc1cc2c(cc1Cl)-c1cc(=O)c(C(=O)O)cn1N1CCC[C@@H]21 (single isomer, unassigned) [Example 3]
- CC50 at 5 days (MT-4 cytotoxicity assay; [2]): 9100 nM
- pEC50 [1, 3]: < 6.00

SMILES: COC(C)(C)C#Cc1cc2c(cc1OC(F)F)-c1cc(=O)c(C(=O)O)cn1N1[C@@H]2CCC1(C)C [Example 103, (R)-11-(difluoromethoxy)-12-(3-methoxy-3-methylbut-1-yn-1-yl)-3,3-dimethyl-8-oxo-2,3,8,13b-tetrahydro-1H-pyrido[2,1-a]pyrrolo[1,2-c]phthalazine-7-carboxylic acid]
- CC50 at 5 days (MT-4 cytotoxicity assay; [2]): > 10000 nM
- pEC50 [1, 3]: 9.09

SMILES: COc1cc2c(cc1C#CC(C)(C)S(C)(=O)=O)[C@H]1CCC(C)(C)N1n1cc(C(=O)O)c(=O)cc1-2 [Example 83, (R)-11-methoxy-3,3-dimethyl-12-(3-methyl-3-(methylsulfonyl)but-1-yn-1-yl)-8-oxo-2,3,8,13b-tetrahydro-1H-pyrido[2,1-a]pyrrolo[1,2-c]phthalazine-7-carboxylic acid]
- CC50 at 5 days (MT-4 cytotoxicity assay; [2]): > 10000 nM
- pEC50 [1, 3]: 8.02

SMILES: COCCCOc1cc2c(cc1Cl)-c1cc(=O)c(C(=O)O)cn1N1[C@H]2CCC1(C)C (single isomer, unassigned) [Example 6]
- CC50 at 5 days (MT-4 cytotoxicity assay; [2]): > 10000 nM
- pEC50 [1, 3]: 6.52

SMILES: COCCCOc1cc2c(cc1OC(C)(C)C)-c1cc(=O)c(C(=O)O)cn1N1[C@@H]2CCC1(C)C [Example 25, (R)-11-(tert-butoxy)-12-(3-methoxypropoxy)-3,3-dimethyl-8-oxo-2,3,8,13b-tetrahydro-1H-pyrido[2,1-a]pyrrolo[1,2-c]phthalazine-7-carboxylic acid]
- CC50 at 5 days (MT-4 cytotoxicity assay; [2]): > 10000 nM
- pEC50 [1, 3]: 6.80

SMILES: CC1(C)CC[C@@H]2c3cc(OCc4ccccc4)c(OC(F)(F)F)cc3-c3cc(=O)c(C(=O)O)cn3N21 [Example 75, (R)-12-(benzyloxy)-3,3-dimethyl-8-oxo-11-(trifluoromethoxy)-2,3,8,13b-tetrahydro-1H-pyrido[2,1-a]pyrrolo[1,2-c]phthalazine-7-carboxylic acid]
- CC50 at 5 days (MT-4 cytotoxicity assay; [2]): 5000 nM
- pEC50 [1]: 8.21
